Values joined by “and” are separate entries in the source; they are usually repeats but may differ in a detail not shown here. Identical values can stand only once.
Legend:
Assay type in all cases: cell-based, human
[1] = tested on: TP53 mRNA; experiment: TP53 knockdown by TaqMan, pRS-p53 shRNA in HCT116 cells
Description: In another specific embodiment, the invention provides a method for determining synthetic lethality between p53 and CHEK1. Stable clones having p53 gene silenced was generated. The pRS-TP53 1026 shRNA plasmid was deconvoluted from a library plasmid pool for TP53 by transforming bacteria with the pool and looking for clones containing only the plasmid of interest. The sequences used are as follows: pRS-p53 1026 19mer sequence: […] (SEQ ID NO:43); primers for sequence specific PCR: Forward: […] (SEQ ID NO:44), Reverse: […] (SEQ ID NO:45). Plasmids were identified by sequence specific PCR, and confirmed by sequencing. Stable p53-clones were generated by transfecting HCT116 cells using FuGENE 6 (Roche) with the pRS-TP53 1026 plasmid. Cells were split into 10 cm dishes plus 1 ug/ml puromycin 48 hours later, and maintained until colonies were evident (5-7 days). Clones were picked into a 96 well plate, maintained in 1 ug/ml puromycin, and tested for knockdown by TaqMan using the TP53 and hGUS Pre-Developed Assay Reagent (Applied Biosystems). To measure transient knockdown by the pRS-TP53 1026 plasmid, HCT116 cells were transfected using Lipofectamine 2000 (Invitrogen), and RNA harvested 24 hours later. TP53 transcript levels were assessed by TaqMan. […]

[2] = tested on: TP53 mRNA; experiment: TP53 mRNA silencing in A549 cells stably transfected with pRS-p53; details: stable A549 pRS-p53 cells versus pRS cells
Experimental: (§1) Next, supertransfection of the CHEK1 siRNA pool into cells stably expressing TP53 shRNAs was evaluated to determine if it could be used to investigate genetic interactions (SL) between these molecules. Matched cell lines +/−TP53 expression were generated by selecting stable clones of A549 lung cancer cell lines containing either empty pRS vector or pRS-p53. […] Both cell lines were then supertransfected with either control luciferase siRNA (luc, 100 nM) or the CHEK1 siRNA pool (100 nM total; 33 nM each of 3 siRNAs) and their cell cycle profiles examined with or without exposure to the DNA damaging agent, doxorubicin (Dox, FIG. 5). Cell cycle profiles of pRS-p53 cells were not appreciably different from those of pRS cells in the absence of Dox.
as §1, with “molecules. […]” for “molecules.”, “Cell cycle profiles of pRS-p53 cells were not appreciably different from those of pRS cells in the absence of Dox.” left out

[3] = tested on: CHEK1 and TP53 mRNA; experiment: Competition between stable TP53 shRNA and CHEK1 siRNA pool, TaqMan (FIG. 4A); details: HCT116 clone A11, siRNA pool 100 nM, 24 hours
Experimental: A pool of three siRNAs targeting CHEK1 was transiently transfected into WT and pRS-p53 stably transfected HCT116 cells (clone A11). CHEK1 and TP53 mRNA levels were measured by Taqman analysis (left and right panels, respectively). […] STK6 and KNSL1 siRNAs were transiently co-transfected into WT SW480 cells and KNSL1 siRNAs were supertransfected into pRS-STK6 stably transfected SW480 cells. STK6 mRNA levels were measured by Taqman analysis. For the left set of bars, STK6 siRNA (10 nM) was used alone or together with one of three different individual KNSL1 siRNAs (10 nM each). […]
To test whether TP53 silencing in HCT116 clone A11 was subject to competition with siRNAs, cells of this clone were supertransfected with a pool of CHEK1-specific siRNAs. […] RNA was harvested 24 hours post transfection and knockdown was assessed by TaqMan analysis using the CHK1 or TP53 and hGUS Pre-Developed Assay Reagent (Applied Biosystems). […] This is in contrast to the observation that two different siRNAs targeting distinct mRNAs compete with each other when transfected together, effectively decreasing the efficacy of one or both of the siRNAs used. pRS and pRS-p53 HCT116 cells were transiently transfected with siRNA pools for ˜800 genes (see Example 3, infra) and measured effects on cellular growth by Alamar Blue assay. […]

[4] = tested on: HeLa cells; experiment: siRNA library screen for sensitization to Cisplatin (Alamar Blue growth)
Experimental: The primary screen with each agent was performed in HeLa cells, which are TP53 deficient. HeLa cells were transfected with siRNA pools, and the drugs were added 4 hrs later. […] The growth of cells +/−drug was assessed at 72 hrs post-transfection.
siRNA transfection was carried out as follows: one day prior to transfection, 50 microliters of a chosen cell line, e.g., cervical cancer HeLa cells (ATCC, Cat. No. CCL-2), grown in DMEM/10% fetal bovine serum (Invitrogen, Carlsbad, Calif.) to approximately 90% confluency were seeded in a 384-well tissue culture plate at 450 cells/well. For each transfection 20 microliters of OptiMEM (Invitrogen) was mixed with 2 microliter of siRNA (Dharmacon, Lafayette, Colo.) from a 10 micromolar stock. For each transfection, a ratio of 20 microliter of OptiMEM was mixed with 1 microliter of Oligofectamine reagent (Invitrogen) and incubated 5 minutes at room temperature. Then 20-microliter OptiMEM/Oligofectamine mixture was dispensed into each well of the 96 well plate with the OptiMEM/siRNA mixture, mixed and incubated 15-20 minutes at room temperature.
The internal environment of the proliferating cell is more reduced than that of non-proliferating cells.

[5] = tested on: TP53-negative A549 cells; experiment: Alamar Blue cell growth, cisplatin after siRNA supertransfection, TP53-negative cells (FIG. 20)
Experimental: A549 cells stably transfected with empty vector (pRS, left panel) or an shRNA targeting TP53 (pRS-TP53, right panel) were supertransfected with siRNAs to luciferase, BRCA1, or BRCA2 prior to treatment with the DNA damaging agent, cisplatin. Cell growth was measured 72 hrs post-transfection using Alamar Blue.
The cell lines used in this example were HeLa cells, TP53-positive A549 cells and TP53-negative A549 cells. The matched pair of TP53 positive and negative cells were generated by stable transfection of short hairpin RNAs (shRNAs) targeting TP53 (monthly highlt highlight, November 2003). […]
After 4 hours, 100 microliter/well of DMEM/10% fetal bovine serum with or without DNA damage agents was added to each well to reach the final concentration of each agents as described above. […] Samples from the 6-well plates were analyzed for cell cycle profiles and samples from 96-well plates were analyzed for cell growth with Alamar Blue assay.
For Alamar Blue assay, the media from the 96-well plates was removed, and 100 uL/well complete media containing 10% (vol/vol) alamarBlue reagent (BioSource International, Inc) and 1/100th volume 1M Hepes buffer tissue culture reagent was added. The plates were then incubated 1-4 hours at 37° C. and fluorescence was measured by exciting at 544 nm and detecting emission at 590 nm with […]ax Gemini-Xs Spectrofluorometer (Molceular Devices). […]

[6] = cisplatin, HeLa cell growth, 72 hrs

Question: How did the “TP53 mRNA silencing” value ([1]; stable clones A5 and A11) turn out when GACTCCAGTGGTAATCTAC [pRS-p53] was run?
Answer: > 95%

Question: And the “TP53 mRNA silencing” value ([1]; transient transfection, 24 hr post transfection)?
Answer: ~80%

Question: And the “TP53 mRNA silencing” value [2]?
Answer: > 90% and ~90%

Question: What about the “competitive inhibition of silencing between TP53 shRNA and CHEK1 siRNA pool” value [3] of the same compound?
Answer: does not affect

Question: How did the EC25 ([4]; 400 ng/ml stated to be an <EC25 concentration) turn out when `N.N.[Cl][Pt][Cl]` [cisplatin, cis-Diaminedichloroplatinum] was run?
Answer: > 0.4 µg/mL

Question: What about the EC10 [4, 6] of the same compound?
Answer: ~0.1 µg/mL

Question: What about the EC50 [4, 6] of the same compound?
Answer: ~0.4 µg/mL

Question: And the IC50 ([5]; cells transfected with BRCA1 or BRCA2 siRNAs)?
Answer: ~0.1 nM

Question: And the IC50 ([5]; cells transfected with control siRNA (luciferase))?
Answer: ~1 nM
